Assay results: patent publication US20050148607A1, “Preventives and/or remedies for subjects with the expression or activation of her2 and/or egfr” (priority 2002, published 2005)

Experiments:
[1] = test system: EGFR overexpression cancer A431; details: EGFR overexpression cancer A431, literature; cited from earlier work
[2] = test system: human pancreatic cancer HPAC (both EGFR, Her2 positive); test: In vivo antitumor effects, HPAC xenograft in nude mice; details: Balb/c nude mice, final day
Experimental: (§1) Cultured human cancer cells suspended in PBS were implanted subcutaneously in the back of female Balb/c nude mice (Balb/cAJcl-nu mouse, CLEA Japan Inc., 5-week-old when received) at 5×10^6/100 μl. When about 7 days later and the average volume of the implanted tumors almost reached 100 mm^3, the mice were allotted by 4 mice per group such that the average tumor volume of each group became equal.
(§2) For the tumor volume, the longer diameter and the shorter diameter were measured with calipers and calculated as [(shorter diameter)^2×(longer diameter/2)]=tumor volume [mm^3]. A pharmaceutical agent was administered by oral gavage once a day for 14 consecutively days from the day of allottment, and the pharmaceutical agent was not administered to the mice of the control group. The relative tumor growth rate was calculated based on the tumor volume on the administration start day for the pharmaceutical agent treatment group against the control group as rate 1. The antitumor effects are shown in % control. The % control was calculated by the following formula. % control=[(average relative tumor growth rate of pharmaceutical agent treatment group on the final day-1)/(average relative tumor growth rate of control group on the final day-1)]×100

[3] = test system: human rectal cancer LS174T (EGFR negative, Her2 positive); test: In vivo antitumor effects, LS174T xenograft in nude mice; details: Balb/c nude mice, final day
Experimental: as §1, §2

[4] = test system: human cervical cancer ME180 (EGFR positive, Her2 negative); test: In vivo antitumor effects, ME180 xenograft in nude mice; details: Balb/c nude mice, final day
Experimental: as §1, §2

erbB3 = details: MDA-MB-453 cells stimulated with Heregulin, literature; cited from earlier work
[5] = test system: human lung cancer NCI-H520 (both EGFR, Her2 negative); test: In vivo antitumor effects, NCI-H520 xenograft in nude mice; details: Balb/c nude mice, final day
Experimental: as §1, §2

[6] = 10 mg/kg oral once a day for 14 days
[7] = 30 mg/kg oral once a day for 14 days

Structure (SMILES)	in vivo antitumor effect [1]	% control [2, 6] [% control]	% control [2, 7] [% control]	% control [3, 6] [% control]	% control [3, 7] [% control]	% control [4, 6] [% control]	% control [4, 7] [% control]	inhibition of tyrosine phosphorylation of erbB3 (erbB3)	% control [5, 6] [% control]	% control [5, 7] [% control]
C=CC(=O)Nc1cc2c(Nc3ccc(F)c(Cl)c3)ncnc2cc1OCCCN1CCOCC1 [PD, N-[4-(3-chloro-4-fluorophenyl)amino-7-[3-(4-morpholinyl)propoxy]quinazolin-6-yl]acrylamide]	shows an in vivo antitumor effect	39	11	56	34					
C=CC(=O)Nc1cc2c(Nc3ccc(F)c(Cl)c3)ncnc2cc1OCCCN1CCOCC1 [PD.2HCl]						25	17	inhibit tyrosine phosphorylation	95	87
